The test system of this experiment is cholesterol absorption (serum 3H-cholesterol). The experiment can be described thus: In Vivo Assay of Hypolipidemic Agents using the Rat Cholesterol Absorption Model. The settings on record: peroral, 1 mg/kg, serum 3H-cholesterol 3 h after cholesterol dose, vs vehicle control; for inhibition in vivo at 1 mg/kg: po. The arrangement: species or system Sprague-Dawley rats. As to the method:
In Vivo Assay of Hypolipidemic Agents using the Rat Cholesterol Absorption Model. This model is based on models described by Burnett et al (2002), Bioorg. Med. Chem. Lett. 2002 Feb. 11;12(3):315-8 and J. Lipid Res. 1999 October;40(10):1747-57. Female Sprague-Dawley rats weighing 150-250 g are separated into groups of […] and fasted overnight. The animals (4-6/group) are dosed perorally with 300 μL test compounds in olive oil or suitable vehicle. Thirty minutes later, 3-5 microCuries ^3H-cholesterol per rat are delivered perorally in 300 μL olive oil. After three hours, 200 μL serum is collected, vortexed with scintillation fluid, and measured for radioactivity in a scintillation counter. Percent inhibition is defined as 100*(1−Ctest/Cctrl), where Ctest and Cctl refer to ^3H levels in serum for the test compound and for the vehicle only control, respectively. Percent inhibition values are reported for a fixed dose. The ED50 is the dose at which the half-maximal effect on serum ^3H levels is observed for a given test compound.
Representative compounds of the invention were tested in the Rat Cholesterol Absorption model above.

Structures are written as SMILES.

For orientation: inhibition in vivo means the percentage by which the read-out fell short of the control. Higher therefore signals a strong effect. By % inhibition is commonly meant the share of the control response that was lost under treatment. Lower therefore signals a weak effect.

For the compound `Cc1cccc(-c2ccc([C@@H]3[C@@H](CC[C@H](O)c4ccc(F)cc4)C(=O)N3c3ccc(F)cc3)cc2)c1` [Example 93, (3R,4S)-1-(4-fluorophenyl)-3-[(3S)-3-(4-fluorophenyl)-3-hydroxypropyl]-4-(3′-methylbiphenyl-4-yl)azetidin-2-one], the inhibition in vivo at 1 mg/kg was found to be 28%.

Turning to `Cc1cc(-c2ccc([C@@H]3[C@@H](CC[C@H](O)c4ccc(F)cc4)C(=O)N3c3ccc(F)cc3)cc2)ccc1F` [Example 94, (3R,4S)-4-(4′-fluoro-3′-methylbiphenyl-4-yl)-1-(4-fluorophenyl)-3-[(3S)-3-(4-fluorophenyl)-3-hydroxypropyl]azetidin-2-one], the inhibition in vivo at 1 mg/kg is 30%.

Compound `O=C1[C@H](CC[C@H](O)c2ccc(F)cc2)[C@@H](c2ccc(-c3cccc(O[C@H]4O[C@@H](CO)[C@H](O)[C@@H](O)[C@@H]4O)c3)cc2)N1c1ccc(F)cc1` [Example 95, 4′-{(2S,3R)-1-(4-fluorophenyl)-3-[(3S)-3-(4-fluorophenyl)-3-hydroxypropyl]-4-oxoazetidin-2-yl}biphenyl-3-yl β-L-glucopyranoside] gave an inhibition in vivo at 1 mg/kg of 57%.

In the case of `COc1ccc(-c2ccc([C@@H]3[C@@H](CC[C@H](O)c4ccc(F)cc4)C(=O)N3c3ccc(F)cc3)cc2)c(OC)c1OC` [Example 96, (3R,4S)-1-(4-fluorophenyl)-3-[(3S)-3-(4-fluorophenyl)-3-hydroxypropyl]-4-(2′,3′,4′-trimethoxybiphenyl-4-yl)azetidin-2-one], the inhibition in vivo at 1 mg/kg is 69%.

The compound `COc1ccc(-c2ccc([C@@H]3[C@@H](CC[C@H](O)c4ccc(F)cc4)C(=O)N3c3ccc(F)cc3)cc2)c(OC)c1` [Example 97, (3R,4S)-4-(2′,4′-dimethoxybiphenyl-4-yl)-1-(4-fluorophenyl)-3-[(3S)-3-(4-fluorophenyl)-3-hydroxypropyl]azetidin-2-one] yielded an inhibition in vivo at 1 mg/kg of 40%.

For `Cc1ccccc1-c1ccc([C@@H]2[C@@H](CC[C@H](O)c3ccc(F)cc3)C(=O)N2c2ccc(F)cc2)cc1` [Example 98, (3R,4S)-1-(4-fluorophenyl)-3-[(3S)-3-(4-fluorophenyl)-3-hydroxypropyl]-4-(2′-methylbiphenyl-4-yl)azetidin-2-one], the inhibition in vivo at 1 mg/kg amounted to 7%.

`O=Cc1ccc(-c2ccc([C@@H]3[C@@H](CC[C@H](O)c4ccc(F)cc4)C(=O)N3c3ccc(F)cc3)cc2)cc1` [Example 99, 4′-{(2S,3R)-1-(4-fluorophenyl)-3-[(3S)-3-(4-fluorophenyl)-3-hydroxypropyl]-4-oxoazetidin-2-yl}biphenyl-4-carbaldehyde] registered an inhibition in vivo at 1 mg/kg of 38%.

In turn, `CCOc1cccc(-c2ccc([C@@H]3[C@@H](CC[C@H](O)c4ccc(F)cc4)C(=O)N3c3ccc(F)cc3)cc2)c1` [Example 100, (3R,4S)-4-(3′-ethoxybiphenyl-4-yl)-1-(4-fluorophenyl)-3-[(3S)-3-(4-fluorophenyl)-3-hydroxypropyl]azetidin-2-one] yielded an inhibition in vivo at 1 mg/kg of 54%.

`CCOc1ccc(-c2ccc([C@@H]3[C@@H](CC[C@H](O)c4ccc(F)cc4)C(=O)N3c3ccc(F)cc3)cc2)cc1` [Example 101, (3R,4S)-4-(4′-ethoxybiphenyl-4-yl)-1-(4-fluorophenyl)-3-[(3S)-3-(4-fluorophenyl)-3-hydroxypropyl]azetidin-2-one] registered an inhibition in vivo at 1 mg/kg of 41%.

With `COc1cc(-c2ccc([C@@H]3[C@@H](CC[C@H](O)c4ccc(F)cc4)C(=O)N3c3ccc(F)cc3)cc2)ccc1O` [Example 102, (3R,4S)-1-(4-fluorophenyl)-3-[(3S)-3-(4-fluorophenyl)-3-hydroxypropyl]-4-(4′-hydroxy-3′-methoxybiphenyl-4-yl)azetidin-2-one], the inhibition in vivo at 1 mg/kg turned out to be 56%.

For `CCCOc1cccc(-c2ccc([C@@H]3[C@@H](CC[C@H](O)c4ccc(F)cc4)C(=O)N3c3ccc(F)cc3)cc2)c1` [Example 103, (3R,4S)-1-(4-fluorophenyl)-3-[(3S)-3-(4-fluorophenyl)-3-hydroxypropyl]-4-(3′-propoxybiphenyl-4-yl)azetidin-2-one], at 1 mg/kg the inhibition in vivo was 21%.

`O=Cc1ccc(O)cc1-c1ccc([C@@H]2[C@@H](CC[C@H](O)c3ccc(F)cc3)C(=O)N2c2ccc(F)cc2)cc1` [Example 104, 4′-{(2S,3R)-1-(4-fluorophenyl)-3-[(3S)-3-(4-fluorophenyl)-3-hydroxypropyl]-4-oxoazetidin-2-yl}-5-hydroxybiphenyl-2-carbaldehyde] showed an inhibition in vivo at 1 mg/kg of 52%.

`CC(C)Oc1cccc(-c2ccc([C@@H]3[C@@H](CC[C@H](O)c4ccc(F)cc4)C(=O)N3c3ccc(F)cc3)cc2)c1` [Example 105, (3R,4S)-1-(4-fluorophenyl)-3-[(3S)-3-(4-fluorophenyl)-3-hydroxypropyl]-4-(3′-isopropoxybiphenyl-4-yl)azetidin-2-one] yielded an inhibition in vivo at 1 mg/kg of 15%.

The compound `O=C(O)c1cc(-c2ccc([C@@H]3[C@@H](CC[C@H](O)c4ccc(F)cc4)C(=O)N3c3ccc(F)cc3)cc2)ccc1O` [Example 106, 4′-{(2S,3R)-1-(4-fluorophenyl)-3-[(3S)-3-(4-fluorophenyl)-3-hydroxypropyl]-4-oxoazetidin-2-yl}-4-hydroxybiphenyl-3-carboxylic Acid] came in with an inhibition in vivo at 1 mg/kg of 66%.

Take `COc1cc(OC)cc(-c2ccc([C@@H]3[C@@H](CC[C@H](O)c4ccc(F)cc4)C(=O)N3c3ccc(F)cc3)cc2)c1` [Example 107, (3R,4S)-4-(3′,5′-dimethoxybiphenyl-4-yl)-1-(4-fluorophenyl)-3-[(3S)-3-(4-fluorophenyl)-3-hydroxypropyl]azetidin-2-one]: the inhibition in vivo at 1 mg/kg was 49%.

Regarding `O=C1[C@H](CC[C@H](O)c2ccc(F)cc2)[C@@H](c2ccc(-c3ccc(O)cc3O)cc2)N1c1ccc(F)cc1` [Example 108, (3R,4S)-4-(2′,4′-dihydroxybiphenyl-4-yl)-1-(4-fluorophenyl)-3-[(3S)-3-(4-fluorophenyl)-3-hydroxypropyl]azetidin-2-one], 1 mg/kg produced 69% inhibition in vivo.

As to `CCCCOc1cccc(-c2ccc([C@@H]3[C@@H](CC[C@H](O)c4ccc(F)cc4)C(=O)N3c3ccc(F)cc3)cc2)c1` [Example 109, (3R,4S)-4-(3′-butoxybiphenyl-4-yl)-1-(4-fluorophenyl)-3-[(3S)-3-(4-fluorophenyl)-3-hydroxypropyl]azetidin-2-one], 1 mg/kg produced 52% inhibition in vivo.

In turn, `O=C(O)c1ccc(-c2ccc([C@@H]3[C@@H](CC[C@H](O)c4ccc(F)cc4)C(=O)N3c3ccc(F)cc3)cc2)cc1O` [Example 110, 4′-{(2S,3R)-1-(4-fluorophenyl)-3-[(3S)-3-(4-fluorophenyl)-3-hydroxypropyl]-4-oxoazetidin-2-yl}-3-hydroxybiphenyl-4-carboxylic Acid] showed an inhibition in vivo at 1 mg/kg of 72%.

In turn, `COc1cc(F)cc(-c2ccc([C@@H]3[C@@H](CC[C@H](O)c4ccc(F)cc4)C(=O)N3c3ccc(F)cc3)cc2)c1` [Example 111, (3R,4S)-4-(3′-fluoro-5′-methoxybiphenyl-4-yl)-1-(4-fluorophenyl)-3-[(3S)-3-(4-fluorophenyl)-3-hydroxypropyl]azetidin-2-one] displayed an inhibition in vivo at 1 mg/kg of 72%.

Regarding `O=C1[C@H](CC[C@H](O)c2ccc(F)cc2)[C@@H](c2ccc(-c3cc(O)cc(F)c3)cc2)N1c1ccc(F)cc1` [Example 112, (3R,4S)-4-(3′-fluoro-5′-hydroxybiphenyl-4-yl)-1-(4-fluorophenyl)-3-[(3S)-3-(4-fluorophenyl)-3-hydroxypropyl]azetidin-2-one], the inhibition in vivo at 1 mg/kg amounted to 75%.

`O=C1[C@H](CC[C@H](O)c2ccc(F)cc2)[C@@H](c2ccc(-c3cccc([C@@H]4O[C@@H](CO)[C@H](O)[C@@H](O)[C@@H]4O)c3)cc2)N1c1ccc(F)cc1` [Example 113, (1S)-1,5-anhydro-1-(4′-{(2S,3R)-1-(4-fluorophenyl)-3-[(3S)-3-(4-fluorophenyl)-3-hydroxypropyl]-4-oxoazetidin-2-yl}biphenyl-3-yl)-L-glucitol] displayed an inhibition in vivo at 1 mg/kg of 67%.

For `O=C1[C@H](CC[C@H](O)c2ccc(F)cc2)[C@@H](c2ccc(-c3cc(O)cc(O)c3)cc2)N1c1ccc(F)cc1` [Example 114, (3R,4S)-4-(3′,5′-dihydroxybiphenyl-4-yl)-1-(4-fluorophenyl)-3-[(3S)-3-(4-fluorophenyl)-3-hydroxypropyl]azetidin-2-one], testing at 1 mg/kg gave an inhibition in vivo of 72%.

Consider `O=C1[C@H](CC[C@H](O)c2ccc(F)cc2)[C@@H](c2ccc(-c3cccc(B(O)O)c3)cc2)N1c1ccc(F)cc1` [Example 115, (4′-{(2S,3R)-1-(4-fluorophenyl)-3-[(3S)-3-(4-fluorophenyl)-3-hydroxypropyl]-4-oxoazetidin-2-yl}biphenyl-3-yl)boronic Acid], for which the inhibition in vivo at 1 mg/kg is 70%.

As to `O=C1[C@H](CC[C@H](O)c2ccc(F)cc2)[C@@H](c2ccc(-c3ccc([C@H]4O[C@@H](CO)[C@H](O)[C@@H](O)[C@@H]4O)cc3)cc2)N1c1ccc(F)cc1` [Example 116, (1R)-1,5-anhydro-1-(4′-{(2S,3R)-1-(4-fluorophenyl)-3-[(3S)-3-(4-fluorophenyl)-3-hydroxypropyl]-4-oxoazetidin-2-yl}biphenyl-4-yl)-L-glucitol], 1 mg/kg produced 81% inhibition in vivo.

As to `O=C1[C@H](CC[C@H](O)c2ccc(F)cc2)[C@@H](c2ccc(-c3cccc(C[C@@H]4O[C@H](CO)[C@@H](O)[C@H](O)[C@H]4O)c3)cc2)N1c1ccc(F)cc1` [Example 117], the “% inhibition at 1 mg/kg” value is 26%.

Source of the values: patent US7320972B2, “4-Biarylyl-1-phenylazetidin-2-ones” (Microbia, Inc., priority 2003, dated 2008).
